Measured values as given in patent publication US6313090A, “Methods for treating parasitic infection using thiopeptides” (The United States of America as represented by the …, priority 2000, dated 2001).

Columns and labels:
MDBKF5D2 cell monolayers = test: Toxicity testing assay (MTS/PMS, OD 490 nm); type: cell-based
Experimental: (§1) Toxicity Testing Assay. 200 μl of medium containing drug at the above-mentioned concentrations and positive control preparations [paromomycin/DMSO (2 mg/ml/0.2%)] were introduced into two wells of a 96 well plate containing confluent MDBKF5D2 cell monolayers (ATCC accession number CCL-22) infected with intact C. parvum GCH1 oocysts (5.0×10^4 per well) (43) and two wells without monolayers. The drug was incubated on the monolayers at 37° C. and 8% CO2. At 48 hours, MTS (Owen's solution) and PMS were added to each well at concentrations of 333 μg/ml and 25 μM respectively. The plate was returned to the incubator in the dark to develop for two hours. At two hours, 100 μl of each supernatant was transferred to a new microtiter plate and the optical density (OD) was read in an ELISA plate reader at 490 nm.
(§2) Percent toxicity was calculated by subtracting the mean drug OD from the medium OD, divided by the medium OD, all of which was then multiplied by 100, as shown in the equation below. Cytotoxicity scores were assigned as follows: 0-5% toxicity=0, 6-25% toxicity=1, 26-50% toxicity=2, 51-75% toxicity=3, and 76-100% toxicity=4. As a standard, cytotoxicity scores of 0 or, 1 were considered acceptable levels of toxicity. Toxicity scores of 2, 3, or 4 were considered as high levels of toxicity to the cell monolayer. [formula]
as §1, with “containing drugs” for “containing drug”, “monolayers” for “monolayers (ATCC accession number CCL-22)”, “well)” for “well) (43)”, “and 25μM” for “and 25 μM”
as §2, with “or” for “or,”
as §1, with “monolayers” for “monolayers (ATCC accession number CCL-22)”, “well)” for “well) (43)”, “25μM” for “25 μM”

C. parvum = test: In vivo testing, SCID mice with acute C. parvum infection; parameters: species or system Cryptospordium parvum
Experimental: SCID mice (Taconic Farms, Germantown, N.Y.), preconditioned with monoclonal antibodies to interferon as described (41), were given an acute infection of C. parvum (10^7 oocysts given orally). A total of five mice in two groups were used. One group received 500 mg/kg/day (in two doses of 250 mg/kg) of thiostrepton six days post-infection and the other group received a placebo. Treatment lasted ten days and oocyst shedding was measured by counting the number of oocysts in 30 fields under high power microscopy of acid-fast stained fecal smears and calculating the mean for each group as described (41). […] Mucosal scores describe the extent of mucosal infection detected in formalin-fixedsections of tissue samples from various gut sites (pyloric region of stomach, liver, gallbladder, mid-small intestine, terminal ileum, cecum and colon) taken during necropsy. Scoring was as follows: 0 (no infection) to 5 (maximal infection) and was expressed as the combined score of the number of gut sites examined.

[1] = Table 2, 2 mg/ml, listed as PRM/DMSO
[2] = Table 4 Washed at 4 hours, 250 μg/ml
[3] = Table 4 Washed at 4 hours, 500 μg/ml
[4] = Table 4 Washed at 4 hours, 1000 μg/ml
[5] = Table 4 Washed at 4 hours, 2000 μg/ml
[6] = Table 5, 2000 μg/ml, drug added at 0 hrs
[7] = Table 5, 2000 μg/ml, drug added at 2 hrs
[8] = Table 5, 2000 μg/ml, drug added at 4 hrs
[9] = Table 5, 2000 μg/ml, drug added at 8 hrs
[10] = Table 5, 2000 μg/ml, drug added at 24 hrs
[11] = Table 4 Washed at 4 hours, 100 μg/ml
[12] = Table 4 Washed at 4 hours, 200 μg/ml
[13] = Table 4 Washed at 4 hours, 400 μg/ml
[14] = Table 4 Washed at 4 hours, 800 μg/ml
[15] = Table 5, 800 μg/ml, drug added at 0 hrs
[16] = Table 5, 800 μg/ml, drug added at 2 hrs
[17] = Table 5, 800 μg/ml, drug added at 4 hrs
[18] = Table 5, 800 μg/ml, drug added at 8 hrs
[19] = Table 5, 800 μg/ml, drug added at 24 hrs

## NC[C@@H]1O[C@H](O[C@H]2[C@@H](O)[C@H](O[C@@H]3[C@@H](O)[C@H](N)C[C@H](N)[C@H]3O[C@H]3O[C@H](CO)[C@@H](O)[C@H](O)[C@H]3N)O[C@@H]2CO)[C@H](N)[C@@H](O)[C@@H]1O [PRM, paromomycin]
MDBKF5D2 cell monolayers; Table 1, 2000 μg/ml
  Tox. O.D.: .868
  Toxicity Percent: 21.09%
  Toxicity Score: 1 (6-25% toxicity=1)
MDBKF5D2 cell monolayers; Table 2, 2 mg/ml
  Tox. O.D.: .954
  Toxicity Percent: -4.38%
  Toxicity Score: 0 (0-5% toxicity=0)
MDBKF5D2 cell monolayers; [1]
  Tox. O.D.: .963
  Toxicity Percent: 4.37%
MDBKF5D2 cell monolayers; Table 3 Unwashed, 250 μg/ml
  Tox. O.D.: 1.121
  Toxicity Percent: -7.53%
  Toxicity Score: 0 (0-5% toxicity=0)
MDBKF5D2 cell monolayers; Table 3 Unwashed, 500 μg/ml
  Tox. O.D.: 1.019
  Toxicity Percent: 2.30%
  Toxicity Score: 0 (0-5% toxicity=0)
MDBKF5D2 cell monolayers; Table 3 Unwashed, 1000 μg/ml
  Tox. O.D.: .963
  Toxicity Percent: 7.67%
  Toxicity Score: 1 (6-25% toxicity=1)
MDBKF5D2 cell monolayers; Table 3 Unwashed, 2000 μg/ml
  Tox. O.D.: 1.061
  Toxicity Percent: -1.73%
  Toxicity Score: 0 (0-5% toxicity=0)
MDBKF5D2 cell monolayers; [2]
  Tox. O.D.: 1.121
  Toxicity Percent: -7.68%
  Toxicity Score: 0 (0-5% toxicity=0)
MDBKF5D2 cell monolayers; [3]
  Tox. O.D.: 1.019
  Toxicity Percent: 2.16%
  Toxicity Score: 0 (0-5% toxicity=0)
MDBKF5D2 cell monolayers; [4]
  Tox. O.D.: .963
  Toxicity Percent: 7.54%
  Toxicity Score: 1 (6-25% toxicity=1)
MDBKF5D2 cell monolayers; [5]
  Tox. O.D.: 1.061
  Toxicity Percent: -1.87%
  Toxicity Score: 0 (0-5% toxicity=0)
MDBKF5D2 cell monolayers; [6]
  Tox. O.D.: .962
  Toxicity Percent: 16.17%
  Toxicity Score: 1 (6-25% toxicity=1)
MDBKF5D2 cell monolayers; [7]
  Tox. O.D.: .878
  Toxicity Percent: 23.49%
  Toxicity Score: 1 (6-25% toxicity=1)
MDBKF5D2 cell monolayers; [8]
  Tox. O.D.: .923
  Toxicity Percent: 19.56%
  Toxicity Score: 1 (6-25% toxicity=1)
MDBKF5D2 cell monolayers; [9]
  Tox. O.D.: .871
  Toxicity Percent: 24.05%
  Toxicity Score: 1 (6-25% toxicity=1)
MDBKF5D2 cell monolayers; [10]
  Tox. O.D.: .850
  Toxicity Percent: 25.93%
  Toxicity Score: 1 (6-25% toxicity=1)
MDBKF5D2 cell monolayers; Table 6, 2 mg/ml
  Tox. O.D.: 1.273
  Toxicity Percent: 22.74%
  Toxicity Score: 1 (6-25% toxicity=1)

## C=C(NC(=O)C(=C)NC(=O)c1csc(C2=N[C@@H]3c4csc(n4)[C@H]4NC(=O)c5csc(n5)[C@H]([C@](C)(O)[C@@H](C)O)NC(=O)[C@H]5CSC(=N5)/C(=C/C)NC(=O)[C@H]([C@@H](C)O)NC(=O)c5csc(n5)[C@]3(CC2)NC(=O)[C@H](C)NC(=O)C(=C)NC(=O)[C@H](C)NC(=O)[C@H]([C@@H](C)CC)N[C@@H]2C=Cc3c([C@H](C)O)cc(nc3[C@H]2O)C(=O)O[C@@H]4C)n1)C(N)=O [Thiostrepton, thiostrepton]
MDBKF5D2 cell monolayers; Table 1, 1 μg/ml
  Tox. O.D.: .941
  Toxicity Percent: 14.50%
  Toxicity Score: 1 (6-25% toxicity=1)
MDBKF5D2 cell monolayers; Table 1, 10 μg/ml
  Tox. O.D.: .991
  Toxicity Percent: 9.95%
  Toxicity Score: 1 (6-25% toxicity=1)
MDBKF5D2 cell monolayers; Table 1, 100 μg/ml
  Tox. O.D.: .994
  Toxicity Percent: 9.64%
  Toxicity Score: 1 (6-25% toxicity=1)
MDBKF5D2 cell monolayers; Table 1, .1 μg/ml
  Tox. O.D.: .912
  Toxicity Percent: 17.14%
  Toxicity Score: 1 (6-25% toxicity=1)
MDBKF5D2 cell monolayers; Table 2, 100 μg/ml
  Tox. O.D.: .915
  Toxicity Percent: 9.14%
  Toxicity Score: 1 (6-25% toxicity=1)
MDBKF5D2 cell monolayers; Table 2, 200 μg/ml
  Tox. O.D.: .820
  Toxicity Percent: 18.62%
  Toxicity Score: 1 (6-25% toxicity=1)
MDBKF5D2 cell monolayers; Table 2, 400 μg/ml
  Tox. O.D.: .799
  Toxicity Percent: 20.71%
  Toxicity Score: 1 (6-25% toxicity=1)
MDBKF5D2 cell monolayers; Table 2, 800 μg/ml
  Tox. O.D.: .676
  Toxicity Percent: 32.87%
  Toxicity Score: 2 (26-50% toxicity=2)
MDBKF5D2 cell monolayers; Table 3 Unwashed, 100 μg/ml
  Tox. O.D.: .969
  Toxicity Percent: 7.10%
  Toxicity Score: 1 (6-25% toxicity=1)
MDBKF5D2 cell monolayers; Table 3 Unwashed, 200 μg/ml
  Tox. O.D.: .827
  Toxicity Percent: 20.67%
  Toxicity Score: 1 (6-25% toxicity=1)
MDBKF5D2 cell monolayers; Table 3 Unwashed, 400 μg/ml
  Tox. O.D.: .788
  Toxicity Percent: 24.41%
  Toxicity Score: 1 (6-25% toxicity=1)
MDBKF5D2 cell monolayers; Table 3 Unwashed, 800 μg/ml
  Tox. O.D.: .739
  Toxicity Percent: 29.11%
  Toxicity Score: 2 (26-50% toxicity=2)
MDBKF5D2 cell monolayers; [11]
  Tox. O.D.: .969
  Toxicity Percent: 6.96%
  Toxicity Score: 1 (6-25% toxicity=1)
MDBKF5D2 cell monolayers; [12]
  Tox. O.D.: .827
  Toxicity Percent: 20.56%
  Toxicity Score: 1 (6-25% toxicity=1)
MDBKF5D2 cell monolayers; [13]
  Tox. O.D.: .788
  Toxicity Percent: 24.30%
  Toxicity Score: 1 (6-25% toxicity=1)
MDBKF5D2 cell monolayers; [14]
  Tox. O.D.: .739
  Toxicity Percent: 29.01%
  Toxicity Score: 2 (26-50% toxicity=2)
MDBKF5D2 cell monolayers; [15]
  Tox. O.D.: .783
  Toxicity Percent: 22.91%
  Toxicity Score: 1 (6-25% toxicity=1)
MDBKF5D2 cell monolayers; [16]
  Tox. O.D.: .577
  Toxicity Percent: 43.15%
  Toxicity Score: 2 (26-50% toxicity=2)
MDBKF5D2 cell monolayers; [17]
  Tox. O.D.: .638
  Toxicity Percent: 37.14%
  Toxicity Score: 2 (26-50% toxicity=2)
MDBKF5D2 cell monolayers; [18]
  Tox. O.D.: .786
  Toxicity Percent: 22.56%
  Toxicity Score: 1 (6-25% toxicity=1)
MDBKF5D2 cell monolayers; [19]
  Tox. O.D.: .749
  Toxicity Percent: 26.26%
  Toxicity Score: 2 (26-50% toxicity=2)
MDBKF5D2 cell monolayers; Table 6, 100 μg/ml
  Tox. O.D.: 1.348
  Toxicity Percent: 18.15%
  Toxicity Score: 1 (6-25% toxicity=1)
MDBKF5D2 cell monolayers; Table 6, 200 μg/ml
  Tox. O.D.: 1.324
  Toxicity Percent: 19.61%
  Toxicity Score: 1 (6-25% toxicity=1)
MDBKF5D2 cell monolayers; Table 6, 400 μg/ml
  Tox. O.D.: 1.146
  Toxicity Percent: 30.45%
  Toxicity Score: 2 (26-50% toxicity=2)
MDBKF5D2 cell monolayers; Table 6, 800 μg/ml
  Tox. O.D.: .890
  Toxicity Percent: 45.96%
  Toxicity Score: 2 (26-50% toxicity=2)
MDBKF5D2 cell monolayers; in vitro, summary statement
  toxicity to cells: little toxicity to cells
C. parvum; 2 × 250 mg/kg, combined score of gut sites, 0 (no infection) to 5 (maximal infection) per site
  Mucosal score: 9.8
C. parvum; SCID mice, 500 mg/kg/day (two doses of 250 mg/kg), ten days, FIG. 1
  oocyst shedding compared to placebo: significantly reduced oocyst shedding
C. parvum; last day of 10 day treatment, 2 × 250 mg/kg
  Oocyst shedding, % Inhib: 78.9%
C. parvum; last day of 10 day treatment, 2 × 250 mg/kg, oocysts in 30 fields of fecal smears
  Oocyst shedding, Mean: 11.2
